Assay results: patent US7842856B2, “Herbicide resistance gene, compositions and methods” (The Board of Trustees of the University of Illinois, priority 2005, dated 2010)

Experiments:
[1] = system: A. tuberculatus R (PPO inhibitor-resistant) parent; assay: Herbicide dose-response on whole plants, R parent; format: in vivo, Amaranthus tuberculatus (waterhemp); settings: for GR50 (growth reduction by 50%) R: R line
[2] = system: A. tuberculatus F2 and backcross lines; assay: Inheritance of resistance: R or S response of F2 and backcross lines to lactofen; format: in vivo, Amaranthus tuberculatus
[3] = male F1(R) x female F1(R), lactofen 110 g ai ha^−1 plus 1% COC, 15 days after treatment, N 400
[4] = male F1(R) x female R, lactofen 110 g ai ha^−1, 15 days, N 200
[5] = male F1(R) x female S, lactofen 110 g ai ha^−1, 15 days, N 200
[6] = male F1(S) x female F1(S), lactofen 110 g ai ha^−1, 15 days, N 400
[7] = male F1(S) x female R, lactofen 110 g ai ha^−1, 15 days, N 200
[8] = male F1(S) x female S, lactofen 110 g ai ha^−1, 15 days, N 200

Structure (SMILES)	GR50 (growth reduction by 50%) R ([1]; 10 DAT) [g ai ha^−1]	GR50 (growth reduction by 50%) R ([1]; 15 DAT, dry weight vs control, plus 1% COC) [g ai ha^−1]	fold higher doses survived compared with S plants ([1]; lines homozygous for resistance vs S plants (FIG. 2; Table 2)) [fold]	Observed numbers R [2, 3]	Observed numbers S [2, 3]	Observed numbers R [2, 4]	Observed numbers S [2, 4]	Observed numbers R [2, 5]	Observed numbers S [2, 5]	Observed numbers R [2, 6]	Observed numbers S [2, 6]	Observed numbers R [2, 7]	Observed numbers S [2, 7]	Observed numbers R [2, 8]	Observed numbers S [2, 8]
CCOC(=O)C(C)OC(=O)c1cc(Oc2ccc(C(F)(F)F)cc2Cl)ccc1[N+](=O)[O-] (racemic) [Lactofen, (±)-2-ethoxy-1-methyl-2-oxoethyl 5-{2-chloro-4-(trifluoromethyl)phenoxy}-2-nitrobenzoate]	2.9	21	53	297	103	200	0	98	102	304	96	200	0	109	91
O=C(O)c1cc(Oc2ccc(C(F)(F)F)cc2Cl)ccc1[N+](=O)[O-] [Acifluorfen, 5-{2-chloro-4-(trifluoromethyl)phenoxy}-2-nitrobezoic acid]	5.8														
